{"source": "paper PMC10076643", "about": "“Design, synthesis and anticancer activity studies of 3-(coumarin-3-yl)-acrolein derivatives: Evidenced by integrating network pharmacology and vitro assay” (Frontiers in Pharmacology, 2023)", "key": {"[1]": {"tested_on": "KB cells", "assay": "Transwell invasion assay (Matrigel)", "format": "cell-based, human", "details": "2 IC50, 48 h", "protocol": "Transwell invasion assay was carried out to evaluate the effect of compound 6e on KB cell invasion.\nFor invasion assay, the transwells (8 μm pore size, Corning Incorporated) were precoated with 40 μL Matrigel for 2 h at 37°C to achieve solidification. KB cells were harvested and resuspended in serum-free medium, treated with different concentrations of compound 6e (0.5 IC50, IC50, 2 IC50), and added into the upper wells of the transwell chamber at density of 1×10^5 cells/200 μL. Then 600 μL of RPMI-1640 containing 10% FBS was added into each lower chamber. After 48 h, the invaded cells in the lower champers were fixed with paraformaldehyde for 1 h and stained with crystal violet solution for 2 h. The non-invading cells in the upper chambers of the transwell plates were scraped away by cotton swabs. Next, the chambers were washed with PBS. The invaded cells were then imaged with the inverted fluorescence microscope (Leica DMi8, Germany) and counted with ImageJ software for three independent fields randomly."}, "[2]": {"tested_on": "Hela (human cervical carcinoma cell line)", "assay": "MTT antiproliferative assay, Hela", "format": "cell-based", "details": "72 h", "text": "All the synthesized compounds were screened for in vitro antiproliferative activity against four human cancer cell lines A549 (human lung cancer cell line), KB (human oral epidermoid carcinoma cell line), Hela (human cervical carcinoma cell line), MCF-7 (human breast cancer cell line) and two human normal cell lines HUVEC (human umbilical vein endothelial cell) and LO2 (human normal hepatocytes) through the 3-(4,5-dimethyl-2-thiazolyl)-2,5-diphenyl-2-H-tetrazolium bromide (MTT) assay.\nNon-small-cell lung cancer (A549), oral epidermoid carcinoma (KB), cervical cancer (Hela) and breast cancer (MCF-7) cells were purchased from the American Type Culture Collection (ATCC, America). Human umbilical vein endothelial cell (HUVEC) and human normal hepatocytes (LO2) cells were provided by Guangzhou Medical University (Guangzhou, China). A549 and KB cells were cultured in RMPI-1640 medium (Gibco, America). Hela, MCF-7 and LO2 cells were cultured in DMEM medium (Gibco, America). HUVEC cells were cultured in Ham’s F-12K medium (Gibco, America). All the mediums were supplemented with 10% fetal bovine serum (FBS) (BI, State of Israel), 100 U/mL penicillin and 100 μg/mL streptomycin (Gibco, America), and all the cells were incubated in a sterile incubator at 37°C in an environment of 5% CO2. The tested compounds were dissolved in dimethyl sulfoxide (DMSO) at a concentration of 10 mM, and then diluted into different concentration of solutions by culture medium. The final concentration of DMSO was <0.01% (v/v) in all drug treatment groups to avoid the toxicity in the biological system. Untreated cells were used as a blank control and 5-fluorouracil treated cells were used as a positive control.\nThe incubated tumor cells were planted into 96-well plates (4×10^3 cells/well). After 24 h, the cells were adherent to the wall and treated with the compound 6e in different concentrations (0.78, 1.56, 3.12, 6.25, 12.50, 25.00, and 50.00 μM) for 72 h. Afterwards, the medium was supplemented with 10 µL MTT solution. After 4 h, the culture medium was removed and 100 µL DMSO was added. The absorbance was determined at the wavelength of 540 nm and 655 nm using a microplate reader (BioTek Epoch, America). The results were collected from three independent experiments. The IC50 was then calculated by using GraphPad Prism Software (version 7.0) and non-linear regression (curve fit)."}}, "data": [{"compound": "O=CC=C(Cl)c1cc2ccc(OCc3ccccc3)cc2oc1=O", "note": "[Compound 6e, 3-(7-(Benzyloxy)-2-oxo-2H-chromen-3-yl)-3-chloroacrylaldehyde]", "values": [{"measurement": "KB cell invasion reduced", "setting": "[1]", "result": "more than 64%"}, {"measurement": "IC50", "setting": "[2]", "result": "1820 ± 220", "unit": "nM"}]}]}
